Experimental findings from publication PMC7943581, “Tumor-penetrating therapy for β5 integrin-rich pancreas cancer” (Nature Communications, 2021) are described below.

Test [1] deals with αvβ5 integrin expression in PC3 cells. As to the kind of experiment: Cell surface αvβ5 integrin expression in PC3 cells with TGF-β or LY2157299. It counts as cell-based, human. The following applies: for avb5 MFI: Fig 4E. As for the experimental part: (§1) Spheroids were generated by incubating 5 × 10^4 cells per well in 24-well low binding plates for 3 days. For co-culture studies, spheroids prepared with a mixture of 5 × 10^4 CAFs and 10^4 tumor cells per well were used. In some cases, spheroids were maintained in CM for 2 days in the presence or absence of 10 μM dimethyl sulfoxide (DMSO) or a specific TGF-β inhibitor LY2157299 (PeproTech, Princeton, NJ). The CM was prepared from the supernatant of 3-day-old cultures of CAFs or tumor cells, which was centrifuged at 2000×g for 40 min to remove cellular debris. Some spheroids were incubated in the presence of 30 ng/ml human TGF-β (eBioscience, San Diego, CA) for 48 h.
(§2) Cells were trypsinized into a single cell suspension before staining. The primary antibodies were mouse anti-human αvβ3 (1 μg/sample) (Clone LM609 Cat no. MAB1976, EMD Millipore, Billerica, MA), mouse anti-human αvβ5 (1 μg) (Clone P1F6, Cat no. MAB1961 EMD Millipore), rat anti-mouse αv (1 μg) (Clone RMV7, Cat no. 50-104-13, eBioscience), rabbit anti-human NRP-1 b1b2[20] (1 μg), and Alexa 647 or BV421-conjugated mouse anti-human/mouse αvβ5 (1:50) (clone ALULA Cat no. 565836 or 743669, BD Biosciences, San Jose, CA). The primary antibodies were detected with corresponding secondary antibodies conjugated with Alexa 488, 594, or 647 (1:250) (Invitrogen). The cells were analyzed with an LSR Fortessa System (BD Biosciences), and the data were analyzed with a FlowJo software. Cells were gated on single cells and then on live cells by excluding DAPI or PI positive cells. In tumor cell/CAF co-culture experiments, mCherry high cells were gated in order to define the mCherry-labeled CAFs. For iRGD-AgNP uptake quantification, specific uptake was defined by gating cells positive for either Alexa 647 or 488, which were attached to the AgNPs.
(§3) Spheroids were dissociated into a single cell suspension as described in the previous section. The cells were subjected to flow cytometry to analyze the protein expression of αvβ3 and αvβ5 integrins and NRP-1. The flow cytometry was performed as described in a previous section. Some cells were also subjected to qPCR to analyze mRNA expression of αv (ITGav) and ITGb5 integrin subunits, TGF-β, and ZEB1. Total RNA was extracted using Trizol Reagent (Invitrogen), and cDNA was generated using a SuperScript III First-strand Synthesis System (Invitrogen). qPCR was performed using SYBR green in an ABI 7900 HT (Applied Biosystems, Foster City, CA). The results were normalized against β-actin and cyclophilin A. The list of primers can be found in Supplementary Table 1.

For test [2], the system named is NRP-1 expression in PC3 cells. As to the kind of experiment: Cell surface NRP-1 expression in PC3 cells with TGF-β or LY2157299. The test is classed as cell-based, human. The following applies: Fig 4F. As for the experimental part: as §1, §2, §3
The next test concerns KPC mouse tumors. Put plainly: Modified Miles assay, Evans Blue with iRGD co-injection. It counts as in vivo. The conditions noted are these: IV 100 μl 1% Evans blue then 100 μg iRGD or PBS, 40 min, OD 600 nm, Fig S14. As for the experimental part:
The experiments were performed as described earlier[20],[38]. In brief, for Miles assays, anesthetized mice were warmed to 37 °C for 10 min, followed by an IV bolus of 100 μl of 1% Evans blue dye and then 100 μg of iRGD. After 40 min, the mice under deep anesthesia were perfused through the heart with PBS containing 1% BSA and the organs were harvested for dye extraction using […]. OD 600 nm of the supernatant was measured. For dextran delivery, mice were intravenously injected with 0.3 mg of iRGD followed by 0.3 mg of 10 kDa Alexa 647-conjugated fixable dextran (Invitrogen). After 1 h of circulation, mice were perfused with PBS containing 1% BSA and the organs were harvested and processed for immunofluorescence.

For another test, the system named is PDAC in KPC mice. Put plainly: Long-term treatment of KPC mice, gemcitabine with or without iRGD. The test is classed as in vivo, mouse. As for the experimental part:
One hundred micrograms of FAM-labeled peptide dissolved in 100 μl of PBS was intravenously injected into tumor mice, and allowed to circulate for 15, 30, or 60 min. The mice were perfused through the heart under deep anesthesia using PBS containing 1% BSA, and tissues were harvested, fixed with 4% PFA overnight, washed three times with PBS, and then transferred to 30% sucrose prior to embedding in optimal cutting temperature compound (OCT). In some cases, the FAM signal was enhanced with an anti-fluorescein antibody (1:200) (Cat no. A-889, Invitrogen) followed by a secondary anti-rabbit Alexa 488 antibody (1:200) (Invitrogen). Other antibodies used for immunofluorescence were anti-FAP (1:100) (Cat. no. ABT-11, Millipore Sigma, Temecula, CA), Cy3-anti-αSMA (1:100) (Clone 1A4, Cat. no. C6198, Millipore Sigma), anti-ER-TR7 (1:100) (Cat. no. SC-73355, Santa Cruz Biotechnology, Dallas, TX), rabbit anti-mouse β5 integrin (1:200) (Cat. no. 15459, GeneTex, Irvine, CA), rabbit monoclonal anti-Ki67 (1:200) (Clone SP6, Cat. no. ab16667, Abcam), mouse monoclonal anti-αSMA (0.034 μg/ml) (Clone 1A4, Cat. no. ab7817, Abcam), and rat anti-mouse CD31(1:100) (Clone MEC 13.3, Cat. no. 550274, BD Biosciences) antibodies. The sections were also stained with 4′,6-diamidino-2-phenylindole (DAPI) (1:1000) (Invitrogen). The stained tissue sections were examined with a Zeiss confocal microscope (Zeiss, Dublin, CA). To quantify FAM-iRGD homing (green) and its colocalization with CAFs (red), confocal micrographs were converted to RGB color mode and analyzed with an ImageJ software for the intensity and areas positive for one or both colors. Six to eight random fields per tumor were chosen and repeated in three tumor mice for each time point. For intraductal spreading of FAM-iRGD, cancerous ducts with or without FAM-iRGD signal were manually counted per field of view in confocal micrographs. Six random fields were chosen for each of the three tumors at both time points.
Immunohistochemistry was performed as described previously. Briefly, paraffin-embedded sections were cleared, rehydrated, and subjected to steam heat-mediated antigen retrieval using low or high pH buffer (eBioscience). Endogenous peroxidase activity was blocked with BloxALL (Vector, Burlingame, CA). Blocking was performed with 10% donkey or goat serum plus 5% BSA. The sections were treated with a rabbit anti-αvβ5 polyclonal antibody (1:200) (Cat. no. bs-1356R, BIOSS, Woburn, MA) or a rabbit polyclonal anti-cleaved caspase 3 antibody (1:250) (Cat. no. 9579S, Cell Signaling) at 4 °C overnight and incubated with ImmPRESS (IHC-P, rabbit, MP-7401) secondary antibody reagent (Vector, Burlingame, CA). The sections were counter stained with hematoxylin and eosin (H&E) and viewed with a Nikon Eclipse E-600 bright field microscope.
KPC mice with PDAC of ~4–5 mm confirmed by palpation and ultrasound imaging were randomized into respective treatment cohorts: iRGD alone (100 μg/IV injection, n = 10); gemcitabine (TSZ Chem, Waltham, MA) (100 mg/kg/IP injection, n = 18); iRGD + gemcitabine (n = 16). The treatment was given every 4 days until the mice met the criteria for sacrifice defined by the IACUC. Survival curves were drawn and analyzed using GraphPad (Prism8) software. In another study, the KPC mice were randomized into gemcitabine (100 mg/kg/IP injection) + nab-paclitaxel composed of mouse albumin (30 mg/kg/IP injection) or iRGD (100 μg/IV injection) + gemcitabine + nab-paclitaxel. […]

In test [3] the test system is mPCFAA0779 CAFs and LM-PmC cells. As to the kind of experiment: Peptide entry in 2D co-cultures (confocal microscopy). It counts as cell-based, mouse. The following applies: 2D co-culture, 20 μM peptide, 4 h, 37 °C. As for the experimental part:
A mixture of tumor cells and CAFs at a 2:1 ratio was grown on collagen I-coated coverslips (BD Biosciences) overnight or until they became confluent. The cells were incubated with 20 μM of FAM-labeled peptides for 4 h at 37 °C. The cells were briefly rinsed with warm PBS, fixed in warm 4% paraformaldehyde, and stained with DAPI (1:1000). The cells were visualized with a Fluoview 500 confocal microscope (Olympus America, Center Valley, PA).

Consider `Cc1cccc(-c2nn3c(c2-c2ccnc4ccc(C(N)=O)cc24)CCC3)n1` [LY2157299], for which the “effect on CAF CM-induced αvβ5 expression in PC3 cells” value in test [1] (10 μM, 2 days in CM) is “completely blocked”. For the same compound, the “avb5 MFI” value in test [1] (PC3, CAFCM+LY, Exp1) is reported as 4907; in test [1] (PC3, CAFCM+LY, Exp2) it was 3245; in test [1] (PC3, CAFCM+LY, Exp3) it was 2633; in test [1] (PC3, CAFCM+LY, Exp4), 2959; in test [1] (PC3, NM+TGFb+LY, Exp1), 4584; in test [1] (PC3, NM+TGFb+LY, Exp2) it was 3278. Further, the “avb5 MFI” value in test [1] (PC3, NM+TGFb+LY, Exp3) turned out to be 2186; in test [1] (PC3, NM+TGFb+LY, Exp4) it was 2450. The “NRP1 MFI” value in test [2] (PC3, CAFCM+LY, Exp1) came to 4550; in test [2] (PC3, CAFCM+LY, Exp2), 2287; in test [2] (PC3, CAFCM+LY, Exp3), 2840; in test [2] (PC3, NM+TGFb+LY, Exp1), 11021; in test [2] (PC3, NM+TGFb+LY, Exp2), 3760; in test [2] (PC3, NM+TGFb+LY, Exp3), 6318.

`Cc1cc(-c2ccc(/N=N/c3ccc4c(S(=O)(=O)O)cc(S(=O)(=O)O)c(N)c4c3O)c(C)c2)ccc1/N=N/c1ccc2c(S(=O)(=O)O)cc(S(=O)(=O)O)c(N)c2c1O` [PBS + EB, Evans Blue]: the results for the “Evans Blue in KPC mouse tumors normalized against wet tissue weight” value with KPC mouse tumors (Exp 1), with KPC mouse tumors (Exp 2) and in the test on KPC mouse tumors (Exp 3) were 0.004 µg/mL/mg, 0.07 µg/mL/mg and -0.074 µg/mL/mg, respectively.

`Nc1ccn([C@@H]2O[C@H](CO)[C@@H](O)C2(F)F)c(=O)n1` [Gem, gemcitabine]: the “liver metastases (median)” value in the test with PDAC in KPC mice (KPC mice, necropsy of random samples, not significant) is listed as 26. Also, the “lung metastases (median)” value in the test with PDAC in KPC mice (KPC mice, necropsy of random samples, p = 0.03) was 9. In addition, the “survival at 180 days” value with PDAC in KPC mice (KPC mice, treatment every 4 days) is recorded as 0%. For the same compound, in the test on PDAC in KPC mice (KPC mice, treatment every 4 days, n = 16 combination, n = 18 gemcitabine), the median survival worked out at 71 days.

Turning to TGF-β, the “avb5 MFI” value is on record as 7502 in test [1] (PC3, NM+TGFb+DMSO, Exp1); 9515 in test [1] (PC3, NM+TGFb+DMSO, Exp2); 6238 in test [1] (PC3, NM+TGFb+DMSO, Exp3); 5783 in test [1] (PC3, NM+TGFb+DMSO, Exp4). Further, the “effect of exogenous TGF-β on αvβ5 expression” value in test [1] (cultured PC3 cells, 30 ng/ml, 48 h) is given as “reproduced the CAF CM-induced increase in αvβ5 expression”. In addition, the “NRP1 MFI” value was determined as 12904 in test [2] (PC3, NM+TGFb+DMSO, Exp1); 3924 in test [2] (PC3, NM+TGFb+DMSO, Exp2); 4995 in test [2] (PC3, NM+TGFb+DMSO, Exp3).

Regarding “CRGEKGPDC [FAM-iRGE, variant peptide (…) with the RGD motif changed to RGE, FAM-labeled]”, the “entry of FAM-labeled peptide into cells” value in test [3] is on record as “minimal affinity to the cells”.

Regarding FAM-CRGDC, in test [3], the “entry of FAM-labeled peptide into cells” value was “to a much lesser extent than FAM-iRGD”.

On to “CRGDK/RGPD/EC [iRGD, iRGD tumor-penetrating peptide (CRGDK/RGPD/EC)]”, for which, in the test on PDAC in KPC mice (iRGD alone 100 μg IV every 4 days, n = 10, Fig S15), the “therapeutic benefit vs historical survival of untreated KPC mice” value is given as “did not provide any therapeutic benefit”.
